Measurements from patent US7173021B2, “Synthesis of temozolomide esters as potent anticancer pro-drugs for topical and transdermal applications in treatments of cancers” (Tianjin North Pharm Sci-Tech Co., Ltd., priority 2004, dated 2007).
Values after ≈ are worked out from the molar mass of the structure shown. Values belong to the compound of their own block, whether it stands above or below them.

Assays:
[1] = In vitro permeation, Franz diffusion cell, silicone membrane; type: in vitro ADME; conditions: 37° C., 8 h
Text: Jacketed Franz-type diffusion cells were used throughout the study and the barrier (12) (skin or silicone membrane) was mounted between the two chambers (14, 16) (2.8–3.4 cm^2 available surface area) with the dermal side in contact with the receiver solution (FIG. 2). The diffusion chambers (10) comprised a barrier of skin or silicone membrane (12) mounted between two chambers (14, 16). A cap (18) formed the donor compartment (14). The second receptor compartment (16) contained a receptor cell (20) with a stirring bar (22), sampling port (24) and cover (26). The stirring bar (22) was stirred by means of a magnet plate (28) having a rotating magnet. The receptor compartment comprised a water jacket (30) having a water inlet (32) and a water outlet (34).
Three types of materials were used in permeation studies. • 1. Silicone membrane (Silastic Medical Grade, 500-5, Dow Corning 0.005 in thick) was cut into circular sections (2 cm diameter) and washed with double distilled water prior to use. • 2. Full-thickness rat skin was obtained from Male Wistar rats aged 10 to 12 weeks and weighing 250 to 300 g, which were sacrificed by cervical dislocation, the abdomen shaved and the intact skin removed by dissection. Following removal of fat tissue, the skin was cut into circular pieces and used immediately. • 3. Samples of adult human epidermis were purchased from the Stephen Kirby Skin Bank (UK). The samples were from the leg, were stored at −18° C. and used within one week. Experiments
The membrane (as detailed above) was mounted on the diffusion cell (10), on which the surface area available for diffusion of each cell was about 2.8–3.4 cm^2. The cell cap (18) was placed on the membrane (12), and it was sealed with Parafilm® connecting the cell cap, membrane, and receptor cell. The capacity of each receptor cell was around 25–26 ml, which was filled with receptor solution and was completely in contact with the membrane sheet. During the course of experiment, the solution was continuously stirred by teflon-coated magnetic bar (22) placed in the cell (20). The temperature was maintained at 37° C. by a thermostatic water pump that circulated the water through the jacket (30) surrounding the cell body. The system was allowed to equilibrate under these conditions for half an hour. Finally, the prepared sample solution (2 ml) was added into the donor cap cell, and it was sealed with Parafilm® to minimize the evaporation of donor solution. 1 ml of receptor solution was removed every 30 minutes for 5 hours and then every 60 minutes for a further 3 hours. The volumes withdrawn were always replaced with equal volumes of fresh receptor solution to maintain constant volume. The concentration of each sample solution was determined by using HPLC.
For every sample, six determinations were performed on human and rat skin, and three determinations were carried out through artificial silicone membrane.
As stated above, after the removal of receptor solution, the receiver compartment was refilled with an identical volume of receptor fluid. This causes of the dilution of receptor solution leading to an under determination of the sample concentration. As a consequence, it was necessary to mathematically correct each successive sample concentrations, in the present invention, which was determined by applying the following equation:
[formula] where Ct is the actual current concentration of drug in the receptor phase at time t, Cmt is the apparent (i.e. measured) current concentration of drug in the receptor phase, Vs is the sample volume withdrawn for analysis, Vr is the volume of receptor solution, and ΣCm is the summed total of the previous measured concentrations.
Finally, the amount of drug penetrating the skin per unit area was calculated by dividing the obtained concentrations by the surface area available for diffusion cell and this value was different for each individual cell. […]

[2] = Solubility in 10% v/v propylene glycol; type: physicochemical; conditions: ambient conditions, stirred 5 hours; for solubility at 5 h: 10% v/v propylene glycol aqueous solution, aqueous with cosolvent or surfactant or cyclodextrin, thermodynamic from solid, read-out: Solubility, Concentration
Protocol: The potential of temozolomide esters used as topical and transdermal prodrugs is first proven through studies of their solubility. That is a decreased trend of solubility in an aqueous solution with increase of the length of the ester hydrocarbon alkyl chain of the temozolomide esters. It is clear the solubility constantly decreases from the methyl ester to the octyl ester, while temozolomide itself is 3.0 mg/ml similar to that of the methyl ester. […] Similarly to the esters, the solubility of the temozolomide amide products in the aqueous solution is considerably lower than that of temozolomide.
The solubility of temozolomide and the temozolomide esters was determined in 10% v/v propylene glycol by stirring an excess of the solid products at room temperature for 5 hours. The mixtures were then filtered, diluted with sample solvent and analysed using HPLC.

MV3 (human melanoma) = assay: In vitro tumour cell growth inhibition (MTT), MV3; type: cell-based; conditions: Homo sapiens, 96 h, Table 2 experiment (separate)
Protocol: (§1) Temozolomide (white powder), temozolomide acid (white powder) and temozolomide-8-carboxylate hexyl (white scale crystal) were made in house. For the estimation of in vitro tumour cell growth inhibition, MV3 (human melanoma), M14 (human melanoma), B16 and B16-BL6 (mouse melanoma), SHG-44, TJ899 and TJ905 (human glioma), MCF-7 (human breast), HCT-8 (human colon), A549 (human non small lung), Bel7402 (human hepatocellulor), and BGC-823 (human stomach) were used. All tumour cells were cultured in RPMI-1640 medium supplemented with 10% fetal bovine serum (FBS) at 37° C. in a humidified 5% CO2 incubator.
(§2) After being harvested from culture flasks, a cell suspension of 1×10^4/ml was made by using 1640 RPMI medium supplemented with 10% fetal bovine serum. 100 μl (contains 1000 tumour cells) of the cell suspension was seeded per well of 96-well flat-bottom Costar culture plates at 37° C. in a humidified 5% CO2 incubator for 24 hrs before introducing drugs. Each tested compounds was made for five different concentrations and 100 μl of the each concentration was introduced into parallel three wells; control wells were added with 100 μl of plain medium alone; fluorouracil (a chemotherapeutic antitumour drug) was used as the positive control. Cells were then incubated for 96 h. Proliferative response and cell death were determined using MTT (3-(4,5-dimethylthiazolyl)-2,5-diphenyl-tetrazolium bromide) assay.
(§3) MTT assay: Following incubation of cells with the tested compounds for 96 h, 100 μl of 0.4 mg/ml MTT in RPMI 1640 was added to each well and the plate was incubated at 37° C. for 4 h. The plate was then centrifuged and followed by removal of medium. 150 μl of DMSO was then added to dissolve formazan crystal. DMSO-added plates were placed on a plate shaker for 5 min and absorbance was measured spectrophotometrically at 540 nm (with reference wavelength at 450 nm) using a Benchmark microtiter plate reader (Bio-Rad 550, Bio-Rad Laboratories, CA, U.S.A.).
(§4) The IC50 was calculated from the curve of the tested compound concentrations against the inhibition rate of the tumour cells. Table 1 summarized the experiment results by using six human cancer cell lines, HCT-8 (colon carcinoma), A549 (non small lung carcinoma), MCF-7 (breast), Bel7402 (hepatocellulor carcinoma), BGC-823 (stomach adenocarcinoma), and MV3 (melanoma). Table 2 summarized the results from the experiment results by using two human melanoma cell lines, MV3 and M14, two mouse melanoma cell lines, B16 and B16-BL6, and three human glioma cell lines, TJ899, SHG-44 and TJ905.

TJ899 (human glioma) = assay: In vitro tumour cell growth inhibition (MTT), TJ899; type: cell-based; conditions: Homo sapiens, Table 2 experiment, 96 h
Protocol: as §1, §2, §3, §4

B16-BL6 (mouse melanoma) = assay: In vitro tumour cell growth inhibition (MTT), B16-BL6; type: cell-based; conditions: Mus musculus, B16-BL6, Table 2 experiment, 96 h
Protocol: as §1, §2, §3, §4

M14 (human melanoma) = assay: In vitro tumour cell growth inhibition (MTT), M14; type: cell-based; conditions: Homo sapiens, Table 2 experiment, 96 h
Protocol: as §1, §2, §3, §4

B16 (mouse melanoma) = assay: In vitro tumour cell growth inhibition (MTT), B16; type: cell-based; conditions: Mus musculus, Table 2 experiment, 96 h
Protocol: as §1, §2, §3, §4

SHG-44 (human glioma) = assay: In vitro tumour cell growth inhibition (MTT), SHG-44; type: cell-based; conditions: Homo sapiens, SHG-44, Table 2 experiment, 96 h
Protocol: as §1, §2, §3, §4

TJ905 (human glioma) = assay: In vitro tumour cell growth inhibition (MTT), TJ905; type: cell-based; conditions: Homo sapiens, Table 2 experiment, 96 h
Protocol: as §1, §2, §3, §4

- solubility at 5 h [2]: 2.5 mg/mL (≈ 11200 µM)
Structure (SMILES): CCOC(=O)c1ncn2c(=O)n(C)nnc12 [Temozolomide ethyl ester, Ethyl 3,4-dihydro-3-methyl-4-oxoimidazo[5,1-d]-1,2,3,5-tetrazine-8-carboxylate]
- Permeation through synthetic silicone membrane ([1]; FIGS. 3-5): can not pass through the synthetic membrane easily

Structure (SMILES): O=NN(CCCl)C(=O)NCCCl [Carmustine]
- IC50 (MV3 (human melanoma)): 6.35 mg/L (≈ 29.7 µM)
- IC50 (TJ899 (human glioma)): 54.2 mg/L (≈ 253 µM)
- IC50 (B16-BL6 (mouse melanoma)): 13.1 mg/L (≈ 61.3 µM)
- IC50 (M14 (human melanoma)): 28.7 mg/L (≈ 134 µM)
- IC50 (B16 (mouse melanoma)): 7.75 mg/L (≈ 36.2 µM)
- IC50 (SHG-44 (human glioma)): 7.2 mg/L (≈ 33.6 µM)
- IC50 (TJ905 (human glioma)): 67.3 mg/L (≈ 314 µM)

- Solubility, Concentration [2]: 1.8 mg/mL (≈ 7190 µM)
Structure (SMILES): CCC(C)NC(=O)c1ncn2c(=O)n(C)nnc12 (stereo not shown) [Temozolomide sec-butyl amide]

- Permeation through synthetic silicone membrane ([1]; FIGS. 3-5, listed as octyl ester): significantly less than the hexyl ester
- solubility at 5 h [2]: 0.3 mg/mL (≈ 976 µM)
Structure (SMILES): CCCCCCCCOC(=O)c1ncn2c(=O)n(C)nnc12 [Temozolomide n-octyl ester, n-Octyl 3,4-dihydro-3-methyl-4-oxoimidazo[5,1-d]-1,2,3,5-tetrazine-8-carboxylate]
- Permeation through synthetic silicone membrane ([1]; FIGS. 3-5, listed as n-octyl ester): passed through the membrane far more efficiently

- solubility at 5 h [2]: 2.8 mg/mL (≈ 11900 µM)
Structure (SMILES): CC(C)NC(=O)c1ncn2c(=O)n(C)nnc12 [Temozolomide isopropyl amide, 3-Methyl-N-(iso-propyl)-4-oxoimidazo[5,1-d]-1,2,3,5-tetrazine-8-carboxamide]

- solubility at 5 h [2]: 1.4 mg/mL (≈ 5570 µM)
Structure (SMILES): CCCCOC(=O)c1ncn2c(=O)n(C)nnc12 [Temozolomide n-butyl ester, n-Butyl 3,4-dihydro-3-methyl-4-oxoimidazo[5,1-d]-1,2,3,5-tetrazine-8-carboxylate]
- Permeation through synthetic silicone membrane ([1]; FIGS. 3-5): passed through the membrane far more efficiently
